9 compounds from US10206394B2, “Herbicidal compounds” (Syngenta Participations AG, priority 2014, dated 2019) can be followed below.

What all share (assay): Glasshouse assay for herbicidal activity (pre- and post-emergence), percentage phytotoxicity
Format in all cases: in vivo

Experiment [1] has as its system Echinochloa crus-galli (ECHCG). Conditions: Echinochloa crus-galli. Summed up: (§1)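 Pot-grown, standard soil. PRE: spray 1 d post-sowing; POST: ~12 d. Glasshouse 24/18 °C (warm spp.) / 20/16 °C (cool spp.), 16 h light, 65% RH, watered 2×/day. Visual % damage, 20 DAA PRE, 15 DAA POST.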
For experiment [2], the system named is Alopecurus myosuroides (ALOMY). Conditions: Alopecurus myosuroides. In short, it runs like this: as §1
The subject of another experiment is Lolium perenne (LOLPE). Conditions: Lolium perenne. In short, it runs like this:
as §1

A further experiment has as its system Avena fatua (AVEFA). The settings on record: Avena fatua. Summed up:
as §1

Where [3] appears, read: post-emergence, 360 h, 250 g/ha, post-emergence, 15 DAA, visual assessment (100%=total damage, 0%=no damage), read-out: Post-emergence herbicidal activity (percentage phytotoxicity) ECHCG POST.
Setting [4] is: pre-emergence, 480 h, 250 g/ha, pre-emergence, 20 DAA, visual assessment (100%=total damage, 0%=no damage), read-out: Pre-emergence herbicidal activity (percentage phytotoxicity) ECHCG PRE.
The mark [5] stands for this setting: post-emergence, 360 h, 250 g/ha, post-emergence, 15 DAA, visual assessment (100%=total damage, 0%=no damage), read-out: Post-emergence herbicidal activity (percentage phytotoxicity) ALOMY POST.
The mark [6] stands for this setting: pre-emergence, 480 h, 250 g/ha, pre-emergence, 20 DAA, visual assessment (100%=total damage, 0%=no damage), read-out: Pre-emergence herbicidal activity (percentage phytotoxicity) ALOMY PRE.
Setting [7] is: post-emergence, 360 h, 250 g/ha, post-emergence, 15 DAA, visual assessment (100%=total damage, 0%=no damage), read-out: Post-emergence herbicidal activity (percentage phytotoxicity) LOLPE POST.
Setting [8] is: pre-emergence, 480 h, 250 g/ha, pre-emergence, 20 DAA, visual assessment (100%=total damage, 0%=no damage), read-out: Pre-emergence herbicidal activity (percentage phytotoxicity) LOLPE PRE.
Where [9] appears, read: post-emergence, 360 h, 250 g/ha, post-emergence, 15 DAA, visual assessment (100%=total damage, 0%=no damage), read-out: Post-emergence herbicidal activity (percentage phytotoxicity) AVEFA POST.
Setting [10] is: pre-emergence, 480 h, 250 g/ha, pre-emergence, 20 DAA, visual assessment (100%=total damage, 0%=no damage), read-out: Pre-emergence herbicidal activity (percentage phytotoxicity) AVEFA PRE.
The mark [11] stands for this setting: post-emergence, 360 h, Rate 250 g/ha, post-emergence, visual assessment 15 DAA, 100%=total damage, 0%=no damage, read-out: Post-emergence herbicidal activity (percentage phytotoxicity) ECHCG POST.
Where [12] appears, read: pre-emergence, 480 h, Rate 250 g/ha, pre-emergence, visual assessment 20 DAA, 100%=total damage, 0%=no damage, read-out: Pre-emergence herbicidal activity (percentage phytotoxicity) ECHCG PRE.
Where [13] appears, read: post-emergence, 360 h, Rate 250 g/ha, post-emergence, visual assessment 15 DAA, 100%=total damage, 0%=no damage, read-out: Post-emergence herbicidal activity (percentage phytotoxicity) ALOMY POST.
[14] abbreviates: pre-emergence, 480 h, Rate 250 g/ha, pre-emergence, visual assessment 20 DAA, 100%=total damage, 0%=no damage, read-out: Pre-emergence herbicidal activity (percentage phytotoxicity) ALOMY PRE.
Where [15] appears, read: post-emergence, 360 h, Rate 250 g/ha, post-emergence, visual assessment 15 DAA, 100%=total damage, 0%=no damage, read-out: Post-emergence herbicidal activity (percentage phytotoxicity) LOLPE POST.
Where [16] appears, read: pre-emergence, 480 h, Rate 250 g/ha, pre-emergence, visual assessment 20 DAA, 100%=total damage, 0%=no damage, read-out: Pre-emergence herbicidal activity (percentage phytotoxicity) LOLPE PRE.
The mark [17] stands for this setting: post-emergence, 360 h, Rate 250 g/ha, post-emergence, visual assessment 15 DAA, 100%=total damage, 0%=no damage, read-out: Post-emergence herbicidal activity (percentage phytotoxicity) AVEFA POST.
Where [18] appears, read: pre-emergence, 480 h, Rate 250 g/ha, pre-emergence, visual assessment 20 DAA, 100%=total damage, 0%=no damage, read-out: Pre-emergence herbicidal activity (percentage phytotoxicity) AVEFA PRE.
Where [19] appears, read: post-emergence, 360 h, POST-emergence, rate 250 g/ha, visual score 15 DAA (100%=total damage, 0%=no damage), read-out: Post-emergence herbicidal activity (percentage phytotoxicity) ECHCG POST.
Where [20] appears, read: pre-emergence, 480 h, PRE-emergence, rate 250 g/ha, visual score 20 DAA (100%=total damage, 0%=no damage), read-out: Pre-emergence herbicidal activity (percentage phytotoxicity) ECHCG PRE.
[21] abbreviates: post-emergence, 360 h, POST-emergence, rate 250 g/ha, visual score 15 DAA (100%=total damage, 0%=no damage), read-out: Post-emergence herbicidal activity (percentage phytotoxicity) ALOMY POST.
[22] abbreviates: pre-emergence, 480 h, PRE-emergence, rate 250 g/ha, visual score 20 DAA (100%=total damage, 0%=no damage), read-out: Pre-emergence herbicidal activity (percentage phytotoxicity) ALOMY PRE.
[23] abbreviates: post-emergence, 360 h, POST-emergence, rate 250 g/ha, visual score 15 DAA (100%=total damage, 0%=no damage), read-out: Post-emergence herbicidal activity (percentage phytotoxicity) LOLPE POST.
The mark [24] stands for this setting: pre-emergence, 480 h, PRE-emergence, rate 250 g/ha, visual score 20 DAA (100%=total damage, 0%=no damage), read-out: Pre-emergence herbicidal activity (percentage phytotoxicity) LOLPE PRE.
Where [25] appears, read: post-emergence, 360 h, POST-emergence, rate 250 g/ha, visual score 15 DAA (100%=total damage, 0%=no damage), read-out: Post-emergence herbicidal activity (percentage phytotoxicity) AVEFA POST.
[26] abbreviates: pre-emergence, 480 h, PRE-emergence, rate 250 g/ha, visual score 20 DAA (100%=total damage, 0%=no damage), read-out: Pre-emergence herbicidal activity (percentage phytotoxicity) AVEFA PRE.

Read-outs that look alike come from different tables or passages of the source.

Take `CCc1cc(-n2cc(Cl)cn2)cc(C)c1C1C(=O)CC(CC(=O)NC(C)(C)C)C1=O` (stereo not drawn) [Compound B135]: the pest or weed control at 250 g/ha (in experiment [1] (setting [3]); in experiment [1] (setting [4]); in experiment [2] (setting [5]); in experiment [2] (setting [6]); with Lolium perenne (LOLPE) (setting [7]); in the experiment with Lolium perenne (LOLPE) (setting [8])) was 100% in each case. Also, the values for the pest or weed control at 250 g/ha with Avena fatua (AVEFA) (setting [9]) and with Avena fatua (AVEFA) (setting [10]) were 100% and 90%, respectively.

In the case of `Cc1cc(-c2ncc(F)cc2F)cc(C)c1C1C(=O)CC(CC(=O)NCc2ccc(F)c(F)c2)C1=O` (stereo not drawn) [Compound B73], the pest or weed control at 250 g/ha in experiment [1] (setting [3]) was determined as 100%; in experiment [1] (setting [4]), 100%; in experiment [2] (setting [5]), 100%; in experiment [2] (setting [6]) it was 90%; with Lolium perenne (LOLPE) (setting [7]) it was 100%; with Lolium perenne (LOLPE) (setting [8]) it was 90%. Further, the pest or weed control at 250 g/ha in the experiment with Avena fatua (AVEFA) (setting [9]) turned out to be 100%; with Avena fatua (AVEFA) (setting [10]), 90%.

Take `Cc1cc(C)c(C2C(=O)CC(CC(=O)NCc3ncc(C)s3)C2=O)c(C)c1` (stereo not drawn) [Compound A105]: the pest or weed control at 250 g/ha in experiment [1] (post-emergence, 360 h, Rate 250 g/ha, post-emergence, assessed visually 15 DAA, 100%=total damage, 0%=no damage, read-out: Post-emergence herbicidal activity (percentage phytotoxicity) ECHCG POST) worked out at 60%; in experiment [1] (pre-emergence, 480 h, Rate 250 g/ha, pre-emergence, assessed visually 20 DAA, 100%=total damage, 0%=no damage, read-out: Pre-emergence herbicidal activity (percentage phytotoxicity) ECHCG PRE), 70%; in experiment [2] (post-emergence, 360 h, Rate 250 g/ha, post-emergence, assessed visually 15 DAA, 100%=total damage, 0%=no damage, read-out: Post-emergence herbicidal activity (percentage phytotoxicity) ALOMY POST), 80%; in experiment [2] (pre-emergence, 480 h, Rate 250 g/ha, pre-emergence, assessed visually 20 DAA, 100%=total damage, 0%=no damage, read-out: Pre-emergence herbicidal activity (percentage phytotoxicity) ALOMY PRE), 80%; in the experiment with Lolium perenne (LOLPE) (post-emergence, 360 h, Rate 250 g/ha, post-emergence, assessed visually 15 DAA, 100%=total damage, 0%=no damage, read-out: Post-emergence herbicidal activity (percentage phytotoxicity) LOLPE POST), 70%; in the experiment on Lolium perenne (LOLPE) (pre-emergence, 480 h, Rate 250 g/ha, pre-emergence, assessed visually 20 DAA, 100%=total damage, 0%=no damage, read-out: Pre-emergence herbicidal activity (percentage phytotoxicity) LOLPE PRE), 70%. In addition, the pest or weed control at 250 g/ha with Avena fatua (AVEFA) (post-emergence, 360 h, Rate 250 g/ha, post-emergence, assessed visually 15 DAA, 100%=total damage, 0%=no damage, read-out: Post-emergence herbicidal activity (percentage phytotoxicity) AVEFA POST) worked out at 0%; with Avena fatua (AVEFA) (pre-emergence, 480 h, Rate 250 g/ha, pre-emergence, assessed visually 20 DAA, 100%=total damage, 0%=no damage, read-out: Pre-emergence herbicidal activity (percentage phytotoxicity) AVEFA PRE), 20%.

`CCN(C)C(=O)CC1CC(=O)C(c2c(C)cc(-c3ccc(Cl)cn3)cc2C)C1=O` (stereo not drawn) [Compound B367]: the pest or weed control at 250 g/ha was 100% in experiment [1] (setting [11]); 100% in experiment [1] (setting [12]); 90% in experiment [2] (setting [13]); 90% in experiment [2] (setting [14]); 100% in the experiment with Lolium perenne (LOLPE) (setting [15]); 100% in the experiment on Lolium perenne (LOLPE) (setting [16]). Also, the pest or weed control at 250 g/ha in the experiment with Avena fatua (AVEFA) (setting [17]) and with Avena fatua (AVEFA) (setting [18]) was 100% in each case.

As for `Cc1cc(-c2ncc(Cl)cn2)cc(C)c1C1C(=O)CC(CC(=O)NCc2cccc(F)c2)C1=O` (stereo not drawn) [Compound B337], the pest or weed control at 250 g/ha is 100% in experiment [1] (setting [11]); 90% in experiment [1] (setting [12]); 100% in experiment [2] (setting [13]); 90% in experiment [2] (setting [14]); 100% in the experiment on Lolium perenne (LOLPE) (setting [15]); 90% with Lolium perenne (LOLPE) (setting [16]). Besides, the pest or weed control at 250 g/ha with Avena fatua (AVEFA) (setting [17]) is 100%; in the experiment with Avena fatua (AVEFA) (setting [18]) it was 90%.

On to `Cc1cc(Br)cc(C)c1C1C(=O)CC(CC(=O)NC(C)C)C1=O` (stereo not drawn) [Compound B140], for which the pest or weed control at 250 g/ha in experiment [1] (setting [3]) is 80%; in experiment [1] (setting [4]) it was 70%; in experiment [2] (setting [5]), 90%; in experiment [2] (setting [6]), 90%; with Lolium perenne (LOLPE) (setting [7]), 90%; in the experiment on Lolium perenne (LOLPE) (setting [8]) it was 90%. In addition, the values for the pest or weed control at 250 g/ha with Avena fatua (AVEFA) (setting [9]) and with Avena fatua (AVEFA) (setting [10]) were 90% and 80%, respectively.

Take `C=C(C)CNC(=O)CC1CC(=O)C(c2c(C)cc(-n3cc(Cl)cn3)cc2C)C1=O` (stereo not drawn) [Compound B311]: the pest or weed control at 250 g/ha was 100% in experiment [1] (setting [19]); 90% in experiment [1] (setting [20]); 80% in experiment [2] (setting [21]); 80% in experiment [2] (setting [22]); 70% with Lolium perenne (LOLPE) (setting [23]); 90% in the experiment with Lolium perenne (LOLPE) (setting [24]). Also, the pest or weed control at 250 g/ha in the experiment with Avena fatua (AVEFA) (setting [25]) was 90%; in the experiment with Avena fatua (AVEFA) (setting [26]) it was 80%.

Take `Cc1cc(-c2ncc(F)cc2F)cc(C)c1C1C(=O)CC(CC(=O)N(C)C)C1=O` (stereo not drawn) [Compound B265]: the pest or weed control at 250 g/ha (in experiment [1] (setting [19]); in experiment [1] (setting [20]); in experiment [2] (setting [21]); in experiment [2] (setting [22]); in the experiment with Lolium perenne (LOLPE) (setting [23]); in the experiment with Lolium perenne (LOLPE) (setting [24])) was 100% throughout. In addition, the pest or weed control at 250 g/ha in the experiment on Avena fatua (AVEFA) (setting [25]) and in the experiment with Avena fatua (AVEFA) (setting [26]) was 100% throughout.

With `CC#Cc1cc(C)c(C2C(=O)CC(CC(=O)NCc3ccc(C#N)cc3)C2=O)c(C)c1` (stereo not drawn) [Compound B186], the pest or weed control at 250 g/ha worked out at 100% in experiment [1] (setting [19]); 100% in experiment [1] (setting [20]); 90% in experiment [2] (setting [21]); 90% in experiment [2] (setting [22]); 90% with Lolium perenne (LOLPE) (setting [23]); 90% with Lolium perenne (LOLPE) (setting [24]). The pest or weed control at 250 g/ha in the experiment with Avena fatua (AVEFA) (setting [25]) was 90%; in the experiment with Avena fatua (AVEFA) (setting [26]), 100%.
